Read-outs that look alike come from different tables or passages of the source. No end group written: not given here.
Target: T1, CUL2^ZYG11B (residues 490–728) (Homo sapiens, UniProt Q9C0D3)
T1 construct: PCR was used to amplify CUL2^ZYG11B (residues 490–728); 6×His-SUMO (TEV-cleavable) (N, cleaved yes); made in house; host or cells: E. coli
Test: ITC binding of ORF10 NTE synthetic peptides to CUL2^ZYG11B

[1] = figure panels, […], repeated 3 times, read-out: Kd

T1 sequence (Q9C0D3 490-728): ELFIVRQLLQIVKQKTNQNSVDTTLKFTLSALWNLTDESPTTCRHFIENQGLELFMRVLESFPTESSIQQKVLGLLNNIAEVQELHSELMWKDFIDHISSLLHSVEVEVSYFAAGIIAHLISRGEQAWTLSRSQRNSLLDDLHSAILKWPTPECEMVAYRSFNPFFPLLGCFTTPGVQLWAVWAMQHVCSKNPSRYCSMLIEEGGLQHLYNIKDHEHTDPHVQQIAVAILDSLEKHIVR

## AYINV [SARS-2 ORF10 N5-G1A]
  Kd: 12.4 µM

## GFINV [SARS-2 ORF10 N5-Y2F]
[1]
  Kd: 4.73 µM

## GYANV [SARS-2 ORF10 N5-I3A]
[1]
  Kd: 5.61 µM

## GYFNV [SARS-2 ORF10 N5-I3F]
[1]
  Kd: 0.87 µM

## GYIAV [SARS-2 ORF10 N5-N4A]
[1]
  Kd: 0.59 µM

## PYINV [SARS-2 ORF10 N5-G1P, altered peptide derived from SARS-CoV-2 ORF10 N5, G1P]
ITC
  binding to CUL2^ZYG11B (in words): abolished
